Key:
Assay in all cases: relative viability (nuclei count vs DMSO), 5 days (fraction); higher = more cells survive
SGI-1776 + Lapatinib = compound: CN1CCC(CNc2ccc3ncc(-c4cccc(OC(F)(F)F)c4)n3n2)CC1 [SGI-1776] + CS(=O)(=O)CCNCc1ccc(-c2ccc3ncnc(Nc4ccc(OCc5cccc(F)c5)c(Cl)c4)c3c2)o1 [Lapatinib] (partner 2 µM)
Procedure, shortened: (§1)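 Lung cancer cell lines, seeded in 1536-well plates, were treated the following day by pin tool with a single drug or with five library-drug doses (not always all listed) in √10 steps on top of a fixed anchor-drug dose. Cells were fixed and nuclei stained in one step after 5 days, and nuclei were counted. Relative viability is the nuclei count for treated wells divided by that for vehicle wells, reported as medians of duplicate plates.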

[1] = compound: C1COCCN1C2=NC(=NC3=C2OC4=C3C=CC=N4)C5=CC(=CC=C5)NC(=O)C6=CN=C(C=C6)N + N=C(N)NC(=N)NCCc1ccccc1 [Phenformin] (partner 250 µM)
Procedure, shortened: as §1

Entinostat + Phenformin = compound: Nc1ccccc1NC(=O)c1ccc(CNC(=O)OCc2cccnc2)cc1 [Entinostat] + N=C(N)NC(=N)NCCc1ccccc1 [Phenformin] (partner 250 µM)
Procedure, shortened: as §1

Entinostat + Olaparib = compound: Nc1ccccc1NC(=O)c1ccc(CNC(=O)OCc2cccnc2)cc1 [Entinostat] + O=C(c1cc(Cc2n[nH]c(=O)c3ccccc23)ccc1F)N1CCN(C(=O)C2CC2)CC1 [Olaparib] (partner 8 µM)
Procedure, shortened: as §1

| Cell Line | relative viability (SGI-1776 + Lapatinib; first compound 0.08 µM) | relative viability (SGI-1776 + Lapatinib; first compound 0.8 µM) | relative viability (SGI-1776 + Lapatinib; first compound 2.53 µM) | relative viability (SGI-1776 + Lapatinib; first compound 8 µM) | relative viability ([1]; first compound 0.02 µM) | relative viability ([1]; first compound 0.06325 µM) | relative viability ([1]; first compound 0.2 µM) | relative viability ([1]; first compound 0.6325 µM) | relative viability ([1]; first compound 2 µM) | relative viability (Entinostat + Phenformin; first compound 0.02 µM) | relative viability (Entinostat + Phenformin; first compound 0.06325 µM) | relative viability (Entinostat + Phenformin; first compound 0.2 µM) | relative viability (Entinostat + Phenformin; first compound 0.6325 µM) | relative viability (Entinostat + Phenformin; first compound 2 µM) | relative viability (Entinostat + Olaparib; first compound 0.02 µM) | relative viability (Entinostat + Olaparib; first compound 0.06325 µM) | relative viability (Entinostat + Olaparib; first compound 0.2 µM) | relative viability (Entinostat + Olaparib; first compound 0.6325 µM) | relative viability (Entinostat + Olaparib; first compound 2 µM) |
| --- | --- | --- | --- | --- | --- | --- | --- | --- | --- | --- | --- | --- | --- | --- | --- | --- | --- | --- | --- |
| 201T | 1 | 0.981 | 1.02 | 0.942 | 0.452 | 0.448 | 0.443 | 0.428 | 0.33 | 0.46 | 0.414 | 0.451 | 0.382 | 0.303 | 0.838 | 0.775 | 0.694 | 0.489 | 0.459 |
| A549 | 0.965 | 0.993 | 0.958 | 0.652 | – | 0.159 | 0.142 | 0.206 | 0.063 | 0.166 | 0.207 | 0.197 | 0.169 | 0.101 | 0.332 | 0.375 | 0.334 | 0.258 | 0.232 |
| A-427 | 1.05 | 1.02 | 1.01 | 0.966 | 0.397 | 0.359 | 0.275 | 0.245 | 0.292 | 0.365 | 0.327 | 0.368 | 0.318 | 0.266 | 0.721 | 0.717 | 0.678 | 0.554 | 0.553 |
| ABC-1 | 1.36 | 1.16 | 1.28 | 1.1 | 0.225 | 0.242 | 0.241 | 0.235 | 0.207 | 0.215 | 0.267 | 0.263 | 0.268 | 0.215 | 0.508 | 1.11 | 0.758 | 0.993 | 1.07 |
| BEN | 0.695 | 0.739 | 0.705 | 0.532 | 0.278 | 0.263 | 0.269 | 0.253 | 0.318 | 0.247 | 0.267 | 0.258 | 0.238 | 0.254 | 1.22 | 1.15 | 1.09 | 0.64 | 0.371 |
| CAL-12T | 0.635 | 0.61 | 0.871 | 0.598 | 0.525 | 0.561 | 0.533 | 0.498 | 0.247 | 0.649 | 0.581 | 0.593 | 0.523 | 0.325 | 0.728 | 0.781 | 0.854 | 0.767 | 0.572 |
| COR-L23 | 1.1 | 0.9 | 0.914 | 0.922 | 0.426 | 0.445 | 0.418 | 0.433 | 0.218 | 0.433 | 0.429 | 0.389 | 0.245 | 0.144 | 0.323 | 0.311 | 0.347 | 0.184 | 0.127 |
| Calu-6 | 1.12 | 1.11 | 1.01 | 0.771 | – | – | – | – | – | – | – | – | – | – | 0.603 | 0.539 | 0.637 | 0.381 | 0.323 |

Source: the supplement of paper PMC10307832
